In patent publication US12565475B2, “Small molecule compound inhibiting signal transmission path of TLR7 and TLR9 and use thereof” (AJOU UNIVERSITY INDUSTRY-ACADEMIC COOPERATION FOUNDATION, priority 2019, dated 2026):

Experiments:
TLR8 = molecular target: T1, TLR8 (Homo sapiens, UniProt Q9NR97); test: TLR8-mediated TNF-α secretion (TL8-506) in PMA-differentiated THP-1 cells, ELISA; format: cell-based; conditions: differentiated THP-1, 10 or 20 μM
T1 construct: treated with TIC10-7 for 1 hour, and then treated with TL8-506 as a TLR8 agonist for 4 hours; endogenous in cells; host or cells: THP-1 differentiated with PMA
T1 sequence (Q9NR97 27-1041): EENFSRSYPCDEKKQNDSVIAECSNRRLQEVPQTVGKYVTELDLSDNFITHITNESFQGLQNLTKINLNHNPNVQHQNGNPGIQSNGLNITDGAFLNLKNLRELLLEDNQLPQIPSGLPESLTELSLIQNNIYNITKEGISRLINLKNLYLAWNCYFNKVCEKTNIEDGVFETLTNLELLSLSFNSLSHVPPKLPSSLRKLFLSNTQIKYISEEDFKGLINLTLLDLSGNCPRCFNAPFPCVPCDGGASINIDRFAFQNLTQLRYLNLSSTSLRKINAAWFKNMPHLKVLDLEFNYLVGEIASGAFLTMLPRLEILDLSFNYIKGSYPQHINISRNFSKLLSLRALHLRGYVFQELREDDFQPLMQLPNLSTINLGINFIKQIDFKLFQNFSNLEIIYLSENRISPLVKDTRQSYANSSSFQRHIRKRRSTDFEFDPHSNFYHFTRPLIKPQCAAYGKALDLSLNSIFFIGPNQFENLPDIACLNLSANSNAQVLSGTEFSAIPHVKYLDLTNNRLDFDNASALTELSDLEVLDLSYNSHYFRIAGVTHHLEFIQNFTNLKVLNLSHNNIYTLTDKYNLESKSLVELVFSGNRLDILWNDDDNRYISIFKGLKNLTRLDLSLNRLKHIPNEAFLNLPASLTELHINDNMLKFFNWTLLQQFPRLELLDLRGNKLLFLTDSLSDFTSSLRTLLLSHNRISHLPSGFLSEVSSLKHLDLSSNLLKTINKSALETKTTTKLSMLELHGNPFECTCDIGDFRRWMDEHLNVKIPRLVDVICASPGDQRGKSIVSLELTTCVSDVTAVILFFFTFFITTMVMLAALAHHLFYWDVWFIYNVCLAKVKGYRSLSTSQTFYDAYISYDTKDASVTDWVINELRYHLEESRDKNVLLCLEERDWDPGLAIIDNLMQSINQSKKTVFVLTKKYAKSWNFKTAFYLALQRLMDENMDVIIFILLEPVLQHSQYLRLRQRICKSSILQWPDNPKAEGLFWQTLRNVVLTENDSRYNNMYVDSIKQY
Experimental: A murine macrophage cell line (RAW 264.7) was obtained from the Korean Cell Line Bank (KCLB) and the Korean Cell Line Research Foundation (KCLRF). The cells were cultured in DMEM (Dulbecco's modified Eagle's medium; HyClone Laboratories, Inc., San Angelo, Texas, USA) supplemented with 1% penicillin/streptomycin (HyClone Laboratories, Inc.) antibiotic mixture and 10% fetal bovine serum (FBS; Thermo Fisher Scientific, Inc., Waltham, MA, USA). A human monocytic cell line (THP-1) was provided by Dr. Chang-Hee Suh, Ajou University School of Medicine, Suwon, Korea. […]
Agonists specific to TLR1/TLR2 (Pam3CSK4), TLR2/TLR6 (FSL-1), TLR3 (Poly I:C), TLR7 (imiquimod), and TLR8 (TL8-506) were purchased from InvivoGen Ltd. (Hong-Kong, China), and a TLR4-specific agonist (LPS from E. coli O111:B4) was purchased from Sigma-Aldrich, Inc. For TLR9-specific stimulation, class C CpG-ODN (ODN2395, 5′-TCGTCGTTTTCGGCGCGCGCCG-3′) having full phosphorothioate backbone modification was synthesized (Bioneer, Inc., Daejeon, Korea). […] The cells were treated with test compounds or a control medium for 1 hour, and then stimulated with a TLR agonist for 4 hours, or 24 hours in the case of poly(I:C), and the cytokine secretion was monitored. […]

[1] = system: phosphorylation of MAPK (JNK, p38-MAPK, ERK) and p65 subunit of NF-κB; test: Western blot of NF-κB p65 and MAPK phosphorylation after ODN2395 stimulation; format: cell-based, murine; conditions: RAW 264.7, 20 μM, ODN2395 stimulation 15 min and 30 min
Experimental: RAW 264.7 cells were seeded into a 60 mm cell culture dish at a density of 2×10^6 cells/dish, and treated with test compounds followed by TLR agonists. The cell lysate was harvested through mammalian protein extraction kit (M-PER; Thermo Fisher Scientific, Inc.) with the protease and phosphatase inhibitor cocktail (Thermo Fisher Scientific, Inc.), and the protein levels were quantified using a bicinchoninic acid assay (Sigma-Aldrich, Co.). Protein samples were separated by SDS-PAGE and transferred to nitrocellulose membranes (GE Healthcare, Inc., Chicago, IL, USA). The membranes were incubated with primary antibodies specific to phospho-JNK (Cell Signaling Technology, Inc., Danvers, MA, USA), phospho-ERK (Santa Cruz Biotechnology, Inc., Dallas, TX, USA), phospho-p38-MAPK (Cell Signaling Technology, Inc.), phospho-p65 (Cell Signaling Technology, Inc.), or β-actin (Santa Cruz Biotechnology, Inc.). […] Protein levels were confirmed using a chemiluminescent substrate (SuperSignal™ West Pico PLUS, Thermo Fisher Scientific, Inc.) and a luminescence detection system (Fusion Solo S, VILBER, France).
In general, MYD88 recruitment by TLRs triggers the activation of the transcription factor NF-κB as well as the cell proliferation factor MAPK. […]

SMILES: COc1ccc(CNc2ncc(-c3ccc4c(c3)OCO4)n2C)c(OC)c1 [TIC10-7, 5-(2H-1,3-benzodioxol-5-yl)-N-[(2,4-dimethoxyphenyl)methyl]-1-methyl-1H-imidazol-2-amine]
- TLR8-mediated TNF-α secretion (TLR8): least affected
- phosphorylation of MAPK (JNK, p38-MAPK, and ERK) and the p65 subunit of NF-κB [1]: blocked the robust phosphorylation
